Data as given in US11590116B2 (THERAVANCE BIOPHARMA R&D IP, LLC, priority 2019, dated 2023).
Read-outs that look alike come from different tables or passages of the source.

Legend:
[1] = system: TGF-β-stimulated SMAD3 phosphorylation in BEAS-2B cells; experiment: Cellular ALK5 potency assay, inhibition of TGF-β stimulated pSMAD3 formation in BEAS-2B cells; type: cell-based; details: Homo sapiens, read-out: BEAS2B pIC50 (converted)
Method: The potency of compounds of the present disclosure for inhibition of TGF-β-stimulated SMAD3 phosphorylation was measured in BEAS-2B cells, a human lung epithelial cell line. TGF-β signals through activin receptor-like kinase 5 (ALK5) immediately prior to SMAD3 phosphorylation.
BEAS-2B cells were grown using 50% DMEM (Life Technologies) and 50% F-12 (Life Technologies) media, supplemented with 10% Fetal Bovine Serum (ATCC), 25 mM HEPES (Life Technologies), and 1× Pen-Strep (Life Technologies). Cells were cultured in a humidified incubator set at 37° C., 5% CO2, and trypsonized using 0.25% Trypsin with 0.5% polyvinylpyrrolidone (PVP).
For the assay, BEAS-2B cells were seeded at 7,500 cells/well (25 μL/well) in a 384-well plate and cultured overnight. Before dosing, growth media was aspirated and the wells were rinsed with HBSS Buffer (HBSS with Calcium and Magnesium, Life Technologies) supplemented with 25 mM HEPES (Life Technologies) and 1% Bovine Serum Albumin (Roche). Compounds were serially diluted in DMSO, then further diluted with supplemented HBSS Buffer (50 μL/well) to create a compound plate 3× of the final assay concentration, at 0.3% DMSO. The diluted compounds were then added to the cells (8 μL/well) and incubated at 37° C., 5% CO2 for 1 hour. After the compound incubation, TGF-β (R&D Systems) reconstituted in supplemented HBSS Buffer was added to the cells ([…], final concentration 10 ng/mL) and incubated for a further 30 minutes, after which the cells were immediately lysed with AlphaLISA lysis buffer (PerkinElmer). AlphaLISA Acceptor and Detector beads (PerkinElmer) were added 2 hours apart, then incubated overnight to be read the next day. The potency of the compound was determined through analysis of dose-dependent quantified changes in pSMAD3 signal from baseline (non-compound treated TGF-β stimulated cells). Data are expressed as pIC50 (negative decadic logarithm IC50) values.

[2] = target: T1, recombinant human ALK5 (TGF-βR1) protein (Homo sapiens, UniProt P36897); experiment: Biochemical ALK5 (TGF-βR1) assay to measure pKi (LANCE Ultra ULight kinase assay); details: apparent pKi from pIC50 by Cheng-Prusoff
T1 construct: purchased Life Technologies PR9075A
T1 sequence (P36897 34-503): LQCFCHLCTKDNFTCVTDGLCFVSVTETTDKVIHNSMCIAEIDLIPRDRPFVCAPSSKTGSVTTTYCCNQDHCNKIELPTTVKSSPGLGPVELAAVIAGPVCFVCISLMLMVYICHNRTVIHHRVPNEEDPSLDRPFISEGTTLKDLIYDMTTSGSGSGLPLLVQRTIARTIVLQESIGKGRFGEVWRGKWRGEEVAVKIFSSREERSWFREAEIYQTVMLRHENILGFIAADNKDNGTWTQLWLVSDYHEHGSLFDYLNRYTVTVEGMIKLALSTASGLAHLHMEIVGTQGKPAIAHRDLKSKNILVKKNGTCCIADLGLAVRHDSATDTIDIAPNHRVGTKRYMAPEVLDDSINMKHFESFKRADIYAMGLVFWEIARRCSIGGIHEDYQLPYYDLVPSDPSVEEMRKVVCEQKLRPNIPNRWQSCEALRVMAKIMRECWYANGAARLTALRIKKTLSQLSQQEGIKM
Method: The assays were performed in a 384-well plate (24 columns×16 wells/rows). An Echo® 550 Liquid Handler (Labcyte) was used to prepare various intermediate concentrations of compounds of the present disclosure in 100% DMSO. From the intermediate concentrations, a range of concentrations (from 10 μM to 25 pM corresponding to volumes up to 105 nL) were prepared and ejected into a final assay plate to be used to create individual dose response curves for each of the subject compounds. To a separate column within the assay plate, 105 nL of DMSO in each well was used to establish a maximum assay signal.
With a multidrop dispenser, 8 μL of enzyme mixture (1.25× final) was added to each well. […] The plate was then sealed with an adhesive seal and allowed to equilibrate for 60 minutes at room temperature.
Next, 2 μL of 125 μM ATP (5× final, 125 μM ATP prepared in assay buffer with 2 mM DTT) was added to the incubated mixtures, covered with a MicroClime® Environmental Lid (Product No. LLS-0310, Labcyte) and immediately transferred to 37° C. The reactions were allowed to proceed at 37° C. for 60 minutes before terminating with the addition of 10 μL of detection antibody (LANCE® (lanthanide chelate excite) Ultra Europium-anti-phospo-DNA Topoisomerase 2-alpha (Thr1342)) in detection mixture (12 mM EDTA, 4 nM detection antibody prepared in detection buffer (50 mM Tris-HCl, 150 mM NaCl, 0.5% BSA (Fraction V), pH 7.0)) at room temperature. The plate was then read on a Perkin Elmer EnVision Plate Reader using europium specific reader settings with excitation and emission wavelengths set to 320 or 340 nm and 665 nm, respectively.
For dose-response analyses, percent inhibition versus compound concentrations were plotted, and pIC50 values were determined from a 4-parameter robust fit model with GraphPad Prism V5 Software (GraphPad Software, Inc., La Jolla, Calif.). This model obtains pIC50 values by fitting the sigmoidal dose-response (variable slope) equation to the data. Results were expressed as pIC50 (negative logarithm of IC50) and subsequently converted to pKi (negative logarithm of dissociate constant, K) using the Cheng-Prusoff equation. The higher the value of pKi (lower value of Ki), the greater the inhibition of ALK5 activity.

[3] = inhibition of TGF-β stimulated pSMAD3 formation, BEAS-2B cells

| Ki ([2]; read-out: ALK5 pKi (converted)) | Compound | IC50 [1, 3] | IC50 ([1]; BEAS-2B) | Ki ([2]; ALK5 pKi) |
| --- | --- | --- | --- | --- |
| 0.0398 to 0.316 nM | Cc1cccc(-c2n[nH]cc2-c2ccc3ncc(N4CCCN(C)C(C)C4)cc3n2)n1 (racemic) [Compound 19, 2-[3-(6-methyl-2-pyridyl)-1H-pyrazol-4-yl]-7-[rac-(3S)-3,4-dimethyl-1,4-diazepan-1-yl]-1,5-naphthyridine] | 25.1 to 158 nM | – | – |
| 0.0398 to 0.316 nM | Cc1cccc(-c2nnn(C)c2-c2ccc3ncc(N4CCC(N(C)C)C4)cc3c2)n1 (racemic) [Compound 25, rac-(3S)-N,N-dimethyl-1-[6-[3-methyl-5-(6-methyl-2-pyridyl)triazol-4-yl]-3-quinolyl]pyrrolidin-3-amine] | 25.1 to 158 nM | – | – |
| < 0.0316 nM | Cc1cccc(-c2n[nH]cc2-c2ccc3ncc(N4CC[C@H](N(C)C)C4)cc3c2)n1 (racemic) [Compound 70, rac-(3S)-N,N-dimethyl-1-[6-[3-(6-methyl-2-pyridyl)-1H-pyrazol-4-yl]-3-quinolyl]pyrrolidin-3-amine] | 25.1 to 158 nM | – | – |
| < 0.0316 nM | Cc1nc(-c2n[nH]cc2-c2ccc3ncc(-c4cnn([C@H]5CC[C@@H](N)C5)c4)cc3n2)ccc1F (racemic) [Compound 96, rac-(1R,3S)-3-[4-[6-[3-(5-fluoro-6-methyl-2-pyridyl)-1H-pyrazol-4-yl]-1,5-naphthyridin-3-yl]pyrazol-1-yl]cyclopentanamine] | 25.1 to 158 nM | – | – |
| < 0.0316 nM | Cc1cccc(-c2n[nH]cc2-c2ccc3ncc(N(C)C4CCN(C)C4)cc3n2)n1 (racemic) [Compound 140, N-methyl-6-[3-(6-methyl-2-pyridyl)-1H-pyrazol-4-yl]-N-[rac-(3R)-1-methylpyrrolidin-3-yl]-1,5-naphthyridin-3-amine] | 25.1 to 158 nM | – | – |
| – | Cc1cccc(-c2n[nH]cc2-c2ccc3ncc(C4=C[C@H]5CC[C@@H](C4)N5)cc3n2)n1 (racemic) [Compound 161, 2-[3-(6-methyl-2-pyridyl)-1H-pyrazol-4-yl]-7-[rac-(1R,5S)-8-azabicyclo[3.2.1]oct-2-en-3-yl]-1,5-naphthyridine] | – | 25.1 to 158 nM | 0.0398 to 0.316 nM |
| 0.0398 to 0.316 nM | Cc1cccc(-c2[nH]cnc2-c2ccc3ncc(NCCNC4CCCNC4)cc3c2)n1 (racemic) [Compound 217, N-[6-[5-(6-methyl-2-pyridyl)-1H-imidazol-4-yl]-3-quinolyl]-N′-[rac-(3R)-3-piperidyl]ethane-1,2-diamine] | 200 to 1260 nM | – | – |
| 0.0398 to 0.316 nM | Cc1cccc(-c2n[nH]cc2-c2ccc3ncc(N(C)C4CCNC4)cc3n2)n1 (racemic) [Compound 242, N-methyl-6-[3-(6-methyl-2-pyridyl)-1H-pyrazol-4-yl]-N-[rac-(3R)-pyrrolidin-3-yl]-1,5-naphthyridin-3-amine] | 25.1 to 158 nM | – | – |
| – | Cc1nc(-c2n[nH]cc2-c2ccc3ncc(-c4cnn(C5CCC(N)CC5)c4)cc3n2)ccc1F (stereo not drawn) [Compound 459, 4-[4-[6-[3-(5-fluoro-6-methyl-2-pyridyl)-1H-pyrazol-4-yl]-1,5-naphthyridin-3-yl]pyrazol-1-yl]cyclohexanamine] | 25.1 to 158 nM | – | – |
| 0.0398 to 0.316 nM | CCOC(=O)[C@H](C)NP(=O)(OCc1cnc2ccc(-c3cn[nH]c3-c3cccc(C)n3)nc2c1)Oc1ccccc1 (stereo partly drawn) [Compound 464, ethyl (2S)-2-[[[6-[5-(6-methyl-2-pyridyl)-1H-pyrazol-4-yl]-1,5-naphthyridin-3-yl]methoxy-phenoxy-phosphoryl]amino]propanoate] | – | – | – |
| – | Cc1nc(-c2n[nH]cc2-c2ccc3ncc(-c4cnn(C5CC(N)C5)c4)cc3n2)ccc1F (stereo not drawn) [Compound 647, 3-[4-[6-[3-(5-fluoro-6-methyl-2-pyridyl)-1H-pyrazol-4-yl]-1,5-naphthyridin-3-yl]pyrazol-1-yl]cyclobutanamine] | 25.1 to 158 nM | – | – |
| 0.0398 to 0.316 nM | Cc1cccc(-c2[nH]cnc2-c2ccc3ncc(N4CCC(NCCSC(CCO)C(=O)O)C4)cc3c2)n1 (stereo not drawn) [Compound 720, 4-hydroxy-2-[2-[[1-[6-[5-(6-methyl-2-pyridyl)-1H-imidazol-4-yl]-3-quinolyl]pyrrolidin-3-yl]amino]ethylsulfanyl]butanoic acid] | – | – | – |
| 0.398 to 3.16 nM | Cc1cccc(-c2n[nH]cc2-c2ccc3nccc(C(=O)NCCCN4CCOCC4)c3n2)n1 [Compound 803, 6-[3-(6-methyl-2-pyridyl)-1H-pyrazol-4-yl]-N-(3-morpholinopropyl)-1,5-naphthyridine-4-carboxamide] | – | – | – |
| 0.398 to 3.16 nM | Cc1cccc(-c2n[nH]cc2-c2ccc3nccc(C(=O)NCN4CCOCC4)c3n2)n1 [Compound 807, 6-[3-(6-methyl-2-pyridyl)-1H-pyrazol-4-yl]-N-(morpholinomethyl)-1,5-naphthyridine-4-carboxamide] | – | – | – |
| 3.98 to 31.6 nM | Cc1cccc(-c2n[nH]cc2-c2ccc3nccc(C(=O)NCCN4CCN(C(C)C)CC4)c3n2)n1 [Compound 808, N-[2-(4-isopropylpiperazin-1-yl)ethyl]-6-[3-(6-methyl-2-pyridyl)-1H-pyrazol-4-yl]-1,5-naphthyridine-4-carboxamide] | – | – | – |
| – | CNCCn1cc(-c2cnc3ccc(-c4c[nH]nc4-c4ccc(F)c(C)n4)nc3c2C)cn1 [Compound 870, 2-[4-[6-[3-(5-fluoro-6-methyl-2-pyridyl)-1H-pyrazol-4-yl]-4-methyl-1,5-naphthyridin-3-yl]pyrazol-1-yl]-N-methyl-ethanamine] | 25.1 to 158 nM | – | – |
| 0.0398 to 0.316 nM | Cc1cccc(-c2[nH]cnc2-c2ccc3ncc(-c4ncc(C(=O)OC5CCNCC5)s4)cc3c2)n1 [Compound 1022, piperidin-4-yl 2-(6-(5-(6-methylpyridin-2-yl)-1H-imidazol-4-yl)quinolin-3-yl)thiazole-5-carboxylate] | – | – | – |
| 3.98 to 31.6 nM | Cc1cccc(-c2[nH]ncc2-c2ccc3nccc(C(=O)O[C@H]4CC[C@](C)(N)CC4)c3c2)n1 [Compound 1135, (4-amino-4-methyl-cyclohexyl) 6-[5-(6-methyl-2-pyridyl)-1H-pyrazol-4-yl]quinoline-4-carboxylate] | – | – | – |
| 0.0398 to 0.316 nM | Cc1cccc(-c2[nH]cnc2-c2ccc3ncc(-c4csc(C(=O)OC[C@H]5CC[C@H](N)CC5)c4)cc3c2)n1 [Compound 1245, (4-aminocyclohexyl)methyl 4-[6-[5-(6-methyl-2-pyridyl)-1H-imidazol-4-yl]-3-quinolyl]thiophene-2-carboxylate] | – | – | – |
